Experiments:
[1] = biological target: T1, Peroxisome proliferator-activated receptor alpha (Mus musculus, UniProt P23204); experiment: Transactivation of mouse PPARalpha expressed in CV1 cells; assay type: cell-based, CV-1
T1 sequence (P23204 whole entry): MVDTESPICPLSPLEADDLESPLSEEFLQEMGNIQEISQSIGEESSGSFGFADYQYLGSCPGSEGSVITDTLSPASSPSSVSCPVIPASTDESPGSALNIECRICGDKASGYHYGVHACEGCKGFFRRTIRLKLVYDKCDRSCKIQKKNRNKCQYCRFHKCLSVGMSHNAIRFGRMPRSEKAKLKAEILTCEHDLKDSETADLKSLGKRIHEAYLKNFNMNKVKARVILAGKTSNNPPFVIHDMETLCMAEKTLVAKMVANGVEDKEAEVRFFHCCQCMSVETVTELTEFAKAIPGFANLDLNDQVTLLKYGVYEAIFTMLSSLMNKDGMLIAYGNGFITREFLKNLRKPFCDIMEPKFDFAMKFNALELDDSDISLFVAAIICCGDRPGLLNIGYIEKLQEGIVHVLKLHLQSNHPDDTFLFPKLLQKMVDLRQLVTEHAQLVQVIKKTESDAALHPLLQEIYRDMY

[2] = biological target: T2, Peroxisome proliferator-activated receptor delta (Mus musculus, UniProt P35396); experiment: Transactivation of mouse PPARdelta expressed in CV1 cells; assay type: cell-based, CV-1
T2 sequence (P35396 whole entry): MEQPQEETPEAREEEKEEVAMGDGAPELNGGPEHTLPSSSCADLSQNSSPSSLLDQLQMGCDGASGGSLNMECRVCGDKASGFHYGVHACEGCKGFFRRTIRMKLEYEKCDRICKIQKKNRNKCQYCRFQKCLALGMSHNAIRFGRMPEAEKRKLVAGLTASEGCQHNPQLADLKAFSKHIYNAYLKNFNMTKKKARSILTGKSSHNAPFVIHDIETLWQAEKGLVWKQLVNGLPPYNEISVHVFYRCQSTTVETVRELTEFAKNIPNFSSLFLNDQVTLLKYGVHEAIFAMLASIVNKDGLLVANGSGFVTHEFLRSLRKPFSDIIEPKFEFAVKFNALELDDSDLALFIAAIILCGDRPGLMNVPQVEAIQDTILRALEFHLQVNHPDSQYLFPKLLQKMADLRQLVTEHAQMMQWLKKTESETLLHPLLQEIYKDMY

[3] = biological target: T3, Peroxisome proliferator-activated receptor gamma (Mus musculus, UniProt P37238); experiment: Transactivation of mouse PPARgamma expressed in CV1 cells at 100 uM; assay type: cell-based; conditions: cv-1
T3 sequence (P37238 whole entry): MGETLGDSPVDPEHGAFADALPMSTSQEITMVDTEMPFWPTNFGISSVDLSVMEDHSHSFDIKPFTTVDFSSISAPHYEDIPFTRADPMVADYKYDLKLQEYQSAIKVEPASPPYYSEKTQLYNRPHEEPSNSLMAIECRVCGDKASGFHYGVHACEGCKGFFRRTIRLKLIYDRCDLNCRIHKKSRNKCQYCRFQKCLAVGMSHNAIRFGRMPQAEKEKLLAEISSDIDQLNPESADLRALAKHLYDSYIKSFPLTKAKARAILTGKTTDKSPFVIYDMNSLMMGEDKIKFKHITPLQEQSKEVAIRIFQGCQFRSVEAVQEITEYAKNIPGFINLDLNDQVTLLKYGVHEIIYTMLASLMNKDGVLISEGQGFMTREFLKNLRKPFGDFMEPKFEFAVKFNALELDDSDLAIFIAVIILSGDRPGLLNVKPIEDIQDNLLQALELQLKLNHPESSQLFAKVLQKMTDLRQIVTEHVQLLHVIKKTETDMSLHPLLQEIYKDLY

EC50 [1] [µM]	EC50 [2] [µM]	EC50 [3]	EC50 ([2]; cv-1) [µM]	SMILES
24	22	Not Active	–	C[C@H]1C[C@@](C)(CCCCCCCCCCCCc2ccccc2)OC1=O (stereo in doubt)
20	–	–	22	C[C@H]1C[C@@](C)(CCCCCCCCCCCCc2ccccc2)OC1=O (stereo in doubt; 1a)
25	24	–	–	C[C@H]1C[C@](C)(CCCCCCCCCCCCc2ccccc2)OC1=O (stereo in doubt; (+)-1c)

More lines, now with the values behind:

SMILES	EC50 [1] [µM]	EC50 [2] [µM]	EC50 [3]	EC50 ([2]; cv-1) [µM]
C[C@@H]1C[C@](C)(CCCCCCCCCCCCc2ccccc2)OC1=O	39	34	Not Active	–
C[C@@H]1C[C@@](C)(CCCCCCCCCCCCc2ccccc2)OC1=O	12	9	Not Active	–
C[C@H]1C[C@](C)(CCCCCCCCCCCCc2ccccc2)OC1=O (stereo in doubt)	13	16	Not Active	–

Reference: ChEMBL document CHEMBL1255194, “A stereo-controlled synthesis of 2,4-dimethyl-4-hydroxy-16-phenylhexadecanoic acid 1,4-lactone and its PPAR activities” (Bioorg Med Chem Lett, 2010)
